# Measured values as given in patent US8778871B2 (Takeda Pharmaceutical Company Limited, priority 2004, dated 2014).
# Starred links: 1 amine or outer side, 2 acyl side, 3 side chain; linkers in the order of their positions; H or OH if unused. Non-standard residues stand in square brackets, D forms with d. Residues, ends and D or L forms follow the SMILES beside them. *: point of attachment. X11 = NC(=O)C[C@@H](CN([C@@H](Cc1c[nH]c2ccccc12)C(=O)[*:2])[*:1])N[*:3]; X1 = NC(=O)C[C@@H](C(=O)[*:2])N(C[C@@H](N)Cc1ccc(O)cc1)[*:1]; NαAmidinoTrp = N=C(N)N[C@@H](Cc1c[nH]c2ccccc12)C(=O)*; Cyclohexanecarbonyl = O=C(C1CCCCC1)*; Arg(Me) = CNC(=N)NCCC[C@H](N)C(=O)O; 2Pal = N[C@@H](Cc1ccccn1)C(=O)O; 4Pal = N[C@@H](Cc1ccncc1)C(=O)O; d3Pal = N[C@H](Cc1cccnc1)C(=O)O; Cha = N[C@@H](CC1CCCCC1)C(=O)O; Hexanoyl = CCCCCC(=O)*; azaGly = NNC(=O)O
# Target: T1, hOT7T175 (Homo sapiens, UniProt Q969F8)
# T1 construct: expressed in transfected cells
# T1 sequence (Q969F8 whole entry L364H): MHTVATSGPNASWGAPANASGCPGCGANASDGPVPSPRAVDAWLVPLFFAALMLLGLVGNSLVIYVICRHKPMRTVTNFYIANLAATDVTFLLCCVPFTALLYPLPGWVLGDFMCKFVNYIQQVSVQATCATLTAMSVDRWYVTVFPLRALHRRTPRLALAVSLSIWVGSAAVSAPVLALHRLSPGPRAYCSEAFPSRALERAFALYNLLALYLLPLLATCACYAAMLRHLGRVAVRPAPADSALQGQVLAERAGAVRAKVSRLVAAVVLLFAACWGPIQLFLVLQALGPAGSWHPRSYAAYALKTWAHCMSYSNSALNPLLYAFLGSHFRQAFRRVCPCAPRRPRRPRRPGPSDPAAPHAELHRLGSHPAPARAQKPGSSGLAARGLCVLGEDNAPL
# Assay: Intracellular Ca ion level-increasing activity using FLIPR (180 seconds; specific activity to Metastin (1-54))
# Format: cell-based
# Conditions: hOT7T175/CHO, change in intracellular calcium ion level for 180 seconds, Tables 21-23
# Method: In accordance with the method described in JPA 2000-312590, the intracellular Ca ion level-increasing activity was measured using FLIPR. […]
# The intracellular Ca ion level-increasing activity of the synthetic peptide in hOT7T175/CHO was determined using FLIPR (Molecular Devices, Inc.).
# hOT7T175/CHO was subcultured in DMEM supplemented with 10% dialyzed fetal bovine serum (hereinafter abbreviated as dFBS) and provided for the experiment (hereinafter abbreviated as 10% dFBS/DMEM). The hOT7T175/CHO was suspended in 10% dFBS-DMEM in 15×10^4 cells/ml. The suspension was inoculated on a 96-well plate for FLIPR (Black Plate Clear Bottom, Coster, Inc.) at 200 μl each (3.0×10^4 cells/200 μl), followed by incubation at 37° C. overnight in a 5% CO2 incubator. The cells thus incubated were used (hereinafter simply referred to as the cell plate). Then, 21 ml of HANKS/HBSS (9.8 g of HANKS', 0.35 g of sodium hydrogencarbonate, 20 ml of 1M HEPES; after adjusting the pH to 7.4 with 1N sodium hydroxide, the mixture was subjected to sterilization through a filter), 210 μl of […] Probenecid and 210 μl of fetal bovine serum (FBS) were mixed (HANKS/HBSS-Probenecid-FBS).
# Furthermore, 2 vials of Fluo3-AM (50 μg/vial) were dissolved in 21 μL of dimethylsulfoxide and 21 μL of 20% Pluronic acid. The resulting solution was added to and mixed with 10 ml of HANKS/HBSS-Probenecid-FBS described above. After the culture medium was removed, the mixture was dispensed onto the cell plate in 100 μl each/well, followed by incubation at 37° C. for an hour in a 5% CO2 incubator (pigment loading). The peptide was dissolved in dimethylsulfoxide in 1×10^−3 M. The peptide solution was diluted with HANKS'/HBSS containing 2.5 mM Probenecid and 0.2% BSA. The dilution was transferred to a 96-well plate for FLIPR (V-Bottom plate, Coster, Inc.) (hereinafter referred to as a sample plate). After completion of the pigment loading onto the cell plate, the cell plate washed 4 times with wash buffer, which was obtained by adding 2.5 mM Probenecid to HANKS'/HBSS, using a plate washer to leave 100 μL of wash buffer after the washing. The cell plate and the sample plate were set in FLIPR and 0.05 ml of a sample from the sample plate was automatically transferred to the cell plate with the FLIPR device to promote the cell response. A change in intracellular calcium ion level for 180 seconds was measured with passage of time.
row,SMILES,intracellular Ca ion level-increasing activity [specific activity to Metastin (1-54)]
1,"CNC(=N)NCCC[C@H](NC(=O)[C@H](CC(C)C)NC(=O)NNC(=O)[C@H](Cc1ccccc1)NC(=O)[C@H](Cc1ccccc1)NC(=O)[C@H](CO)NC(=O)[C@H](CC(N)=O)NC(=O)[C@H](Cc1ccccc1)NC(=O)[C@H](CC(N)=O)NC(=O)[C@H](N)Cc1ccc(O)cc1)C(=O)N[C@@H](Cc1ccccc1)C(N)=O [Compound No. 270, D-Tyr-Asn-Phe-Asn-Ser-Phe-Phe-AzaGly-Leu-Arg(Me)-Phe-NH2] (H-[dY]NFNSFF[azaGly]L[Arg(Me)]F-NH2)",1
2,"CNC(=N)NCCC[C@H](NC(=O)[C@H](CC(C)C)NC(=O)NNC(=O)[C@H](Cc1ccccc1)NC(=O)[C@H](CO)NC(=O)[C@H](CC(N)=O)NC(=O)[C@@H](N)Cc1c[nH]c2ccccc12)C(=O)N[C@@H](Cc1ccccc1)C(N)=O [Compound No. 271, Trp-Asn-Ser-Phe-AzaGly-Leu-Arg(Me)-Phe-NH2] (H-WNSF[azaGly]L[Arg(Me)]F-NH2)",1
3,"CNC(=N)NCCC[C@H](NC(=O)[C@H](CC(C)C)NC(=O)NNC(=O)[C@H](Cc1ccccc1)NC(=O)[C@H](CO)NC(=O)[C@H](CC(N)=O)NC(=O)[C@H](Cc1c[nH]c2ccccc12)NC(C)=O)C(=O)N[C@@H](Cc1ccccc1)C(N)=O [Compound No. 272, Acetyl-Trp-Asn-Ser-Phe-AzaGly-Leu-Arg(Me)-Phe-NH2] (Ac-WNSF[azaGly]L[Arg(Me)]F-NH2)",2
4,"CNC(=N)NCCC[C@H](NC(=O)[C@H](CC(C)C)NC(=O)NNC(=O)[C@H](Cc1ccccc1)NC(=O)[C@H](CO)NC(=O)[C@H](CC(N)=O)NC(=O)[C@H](Cc1c[nH]c2ccccc12)NC(=N)N)C(=O)N[C@@H](Cc1ccccc1)C(N)=O [Compound No. 273, Amidino-Trp-Asn-Ser-Phe-AzaGly-Leu-Arg(Me)-Phe-NH2] (NαAmidinoTrp-NSF[azaGly]L[Arg(Me)]F-NH2)",5
5,"CCCCCC(=O)N[C@@H](CC(N)=O)C(=O)N[C@@H](CO)C(=O)N[C@@H](Cc1ccccc1)C(=O)NNC(=O)N[C@@H](CC(C)C)C(=O)N[C@@H](CCCNC(=N)NC)C(=O)N[C@@H](Cc1ccccc1)C(N)=O [Compound No. 277, n-Hexanoyl-Asn-Ser-Phe-AzaGly-Leu-Arg(Me)-Phe-NH2] (Hexanoyl-NSF[azaGly]L[Arg(Me)]F-NH2)",2
6,"CNC(=N)NCCC[C@H](NC(=O)[C@H](CC(C)C)NC(=O)NNC(=O)[C@H](Cc1ccccc1)NC(=O)[C@H](CO)NC(=O)[C@H](CC(N)=O)NC(=O)C1CCCCC1)C(=O)N[C@@H](Cc1ccccc1)C(N)=O [Compound No. 278, Cyclohexanecarbonyl-Asn-Ser-Phe-AzaGly-Leu-Arg(Me)-Phe-NH2] (Cyclohexanecarbonyl-NSF[azaGly]L[Arg(Me)]F-NH2)",2
7,"CNC(=N)NCCC[C@H](NC(=O)[C@H](CC(C)C)NC(=O)CNC(=O)[C@H](Cc1ccccn1)NC(=O)[C@H](CO)NC(=O)[C@H](CC(N)=O)NC(=O)[C@H](Cc1c[nH]c2ccccc12)NC(=O)[C@H](CC(N)=O)NC(=O)[C@H](N)Cc1ccc(O)cc1)C(=O)N[C@@H](Cc1ccccc1)C(N)=O [Compound No. 281, D-Tyr-Asn-Trp-Asn-Ser-Pya(2)-Gly-Leu-Arg(Me)-Phe-NH2] (H-[dY]NWNS[2Pal]GL[Arg(Me)]F-NH2)",½
8,"CNC(=N)NCCC[C@H](NC(=O)[C@H](CC(C)C)NC(=O)NNC(=O)[C@H](Cc1ccccc1)NC(=O)[C@H](CO)NC(=O)[C@H](CC(N)=O)NC(=O)[C@@H](NC(=O)[C@@H](CC(N)=O)NC(=O)[C@H](N)Cc1ccc(O)cc1)[C@@H](C)O)C(=O)N[C@@H](Cc1ccccc1)C(N)=O [Compound No. 284, D-Tyr-D-Asn-Thr-Asn-Ser-Phe-AzaGly-Leu-Arg(Me)-Phe-NH2] (H-[dY][dN]TNSF[azaGly]L[Arg(Me)]F-NH2)",1
9,"CNC(=N)NCCC[C@H](NC(=O)[C@H](CC(C)C)NC(=O)NNC(=O)[C@H](Cc1ccccc1)NC(=O)[C@H](CO)NC(=O)[C@H](CC(N)=O)NC(=O)[C@H](Cc1ccncc1)NC(=O)[C@H](CC(N)=O)NC(=O)[C@H](N)Cc1ccc(O)cc1)C(=O)N[C@@H](Cc1ccccc1)C(N)=O [Compound No. 286, D-Tyr-Asn-Pya(4)-Asn-Ser-Phe-AzaGly-Leu-Arg(Me)-Phe-NH2] (H-[dY]N[4Pal]NSF[azaGly]L[Arg(Me)]F-NH2)",2
10,"CNC(=N)NCCC[C@H](NC(=O)[C@H](CC(C)C)NC(=O)NNC(=O)[C@H](Cc1ccccc1)NC(=O)[C@H](CO)NC(=O)[C@H](CC(N)=O)NC(=O)[C@H](Cc1c[nH]c2ccccc12)NC(=O)[C@@H](CO)NC(=O)[C@H](N)Cc1ccc(O)cc1)C(=O)N[C@@H](Cc1ccccc1)C(N)=O [Compound No. 287, D-Tyr-D-Ser-Trp-Asn-Ser-Phe-AzaGly-Leu-Arg(Me)-Phe-NH2] (H-[dY][dS]WNSF[azaGly]L[Arg(Me)]F-NH2)",2
11,"CNC(=N)NCCC[C@H](NC(=O)[C@H](CC(C)C)NC(=O)NNC(=O)[C@H](Cc1ccccc1)NC(=O)[C@H](CO)NC(=O)[C@H](CC(N)=O)NC(=O)[C@H](Cc1c[nH]c2ccccc12)NC(=O)[C@@H](Cc1c[nH]cn1)NC(=O)[C@H](N)Cc1ccc(O)cc1)C(=O)N[C@@H](Cc1ccccc1)C(N)=O [Compound No. 288, D-Tyr-D-His-Trp-Asn-Ser-Phe-AzaGly-Leu-Arg(Me)-Phe-NH2] (H-[dY][dH]WNSF[azaGly]L[Arg(Me)]F-NH2)",1
12,"CNC(=N)NCCC[C@H](NC(=O)[C@H](CC(C)C)NC(=O)NNC(=O)[C@H](Cc1ccccc1)NC(=O)[C@H](CO)NC(=O)[C@H](CC(N)=O)NC(=O)[C@H](Cc1c[nH]c2ccccc12)NC(=O)[C@H](N)Cc1cccnc1)C(=O)N[C@@H](Cc1ccccc1)C(N)=O [Compound No. 289, D-Pya(3)-Trp-Asn-Ser-Phe-AzaGly-Leu-Arg(Me)-Phe-NH2] (H-[d3Pal]WNSF[azaGly]L[Arg(Me)]F-NH2)",1
13,"CNC(=N)NCCC[C@H](NC(=O)[C@H](CC(C)C)NC(=O)NNC(=O)[C@H](Cc1ccccc1)NC(=O)[C@H](CO)NC(=O)[C@H](CC(N)=O)NC(=O)[C@H](CC1CCCCC1)NC(=O)[C@@H](CC(N)=O)NC(=O)[C@H](N)Cc1cccnc1)C(=O)N[C@@H](Cc1ccccc1)C(N)=O [Compound No. 290, D-Pya(3)-D-Asn-Cha-Asn-Ser-Phe-AzaGly-Leu-Arg(Me)-Phe-NH2] (H-[d3Pal][dN][Cha]NSF[azaGly]L[Arg(Me)]F-NH2)",1
14,"CNC(=N)NCCC[C@H](NC(=O)[C@H](CC(C)C)NC(=O)NNC(=O)[C@H](Cc1ccccc1)NC(=O)[C@H](CO)NC(=O)[C@H](CC(N)=O)NC(=O)[C@H](CC1CCCCC1)NC(=O)[C@@H](Cc1ccc(O)cc1)NC(=O)[C@H](N)Cc1cccnc1)C(=O)N[C@@H](Cc1ccccc1)C(N)=O [Compound No. 291, D-Pya(3)-D-Tyr-Cha-Asn-Ser-Phe-AzaGly-Leu-Arg(Me)-Phe-NH2] (H-[d3Pal][dY][Cha]NSF[azaGly]L[Arg(Me)]F-NH2)",2
15,CC(C)C[C@H](NC(=O)CNC(=O)[C@H](Cc1ccccc1)NC(=O)[C@H](CO)NC(=O)[C@H](CC(N)=O)NC(=O)[C@H](Cc1c[nH]c2ccccc12)NC[C@H](CC(N)=O)NC(=O)[C@@H](N)Cc1ccc(O)cc1)C(=O)N[C@@H](CCCNC(=N)N)C(=O)N[C@@H](Cc1ccccc1)C(N)=O [Compound No. 295] (H-[X11](Tyr)NSFGLRF-NH2),1
16,"CNC(=N)NCCC[C@H](NC(=O)[C@H](CC(C)C)NC(=O)NNC(=O)[C@H](Cc1ccccc1)NC(=O)[C@H](CO)NC(=O)[C@H](CC(N)=O)NC(=O)[C@H](Cc1c[nH]c2ccccc12)NC(=O)[C@H](CC(N)=O)NC[C@@H](N)Cc1ccc(O)cc1)C(=O)N[C@@H](Cc1ccccc1)C(N)=O [Compound No. 299, TyrΨ(CH2NH)Asn-Trp-Asn-Ser-Phe-AzaGly-Leu-Arg(Me)-Phe-NH2] (H-[X1]WNSF[azaGly]L[Arg(Me)]F-NH2)",5
